pIC50: −log10 of the molar value. Activity calls are given as the source filed them. No cut-off for these calls is given here.
Experiments:
HL-60 [1] = assay: Induction of apoptosis in human HL-60 cells assessed as live cells at 1 uM measured after 24 hrs by Annexin-V/FITC and propidium iodide staining based flow cytometry (reference value: 89.29 %); format: functional
PC-3 = assay: Cytotoxicity against human PC-3 cells assessed as reduction in cell viability after 96 hrs by MTT assay; format: functional, cell-based; conditions: PC-3, 96 h
HL-60 [2] = assay: Induction of apoptosis in human HL-60 cells assessed as necrotic cells at 1 uM measured after 24 hrs by Annexin-V/FITC and propidium iodide staining based flow cytometry (reference value: 1.01 %); format: functional
[3] = Half life in Sprague-Dawley rat at 5 mg/kg, iv measured up to 24 hrs by LC-MS/MS analysis; format: ADME, organism-based; conditions: in vivo
HL-60 [4] = assay: Induction of apoptosis in human HL-60 cells assessed as early apoptotic cells at 1 uM measured after 24 hrs by Annexin-V/FITC and propidium iodide staining based flow cytometry (reference value: 2.46 %); format: functional
HL-60 [5] = assay: Upregulation of acetylated alpha-tubulin level in human HL-60 cells at 2 uM measured after 12 hrs by Western blot analysis; format: functional, cell-based
HL-60 [6] = assay: Induction of apoptosis in human HL-60 cells assessed as early apoptotic cells at 0.5 uM measured after 24 hrs by Annexin-V/FITC and propidium iodide staining based flow cytometry (reference value: 2.46 %); format: functional
HL-60 [7] = assay: Induction of apoptosis in human HL-60 cells assessed as late apoptotic cells at 1 uM measured after 24 hrs by Annexin-V/FITC and propidium iodide staining based flow cytometry (reference value: 7.24 %); format: functional
HL-60 [8] = assay: Upregulation of acetylated H3 level in human HL-60 cells at 2 uM measured after 12 hrs by Western blot analysis; format: functional, cell-based
HL-60 [9] = assay: Antiproliferative activity against human HL-60 cells assessed as cell growth inhibition after 72 hrs by trypan blue staining based cell counting assay; format: functional; conditions: HL-60, 72 h
HL-60 [10] = assay: Upregulation of PARP cleavage in human HL-60 cells at 2 uM measured after 12 hrs by Western blot analysis; format: functional, cell-based
[11] = biological target: Histone deacetylase 3/Nuclear receptor corepressor 2 (HDAC3/NCoR2) (Homo sapiens, UniProt O15379); assay: Inhibition of C-terminal His-tagged recombinant human HDAC3 (1 to 428 residues)/N-terminal GST-tagged recombinant human NCoR2 (395 to 489 residues) co-expressed in baculovirus infected Sf9 cells using Boc-Lys(Ac)-AMC as substrate preincubated for 15 mins followed by substrate addition and measured after 60 mins by fluorescence based assay
Sequence of Histone deacetylase 3/Nuclear receptor corepressor 2 (HDAC3/NCoR2) (O15379 whole entry, the tested form may be a part): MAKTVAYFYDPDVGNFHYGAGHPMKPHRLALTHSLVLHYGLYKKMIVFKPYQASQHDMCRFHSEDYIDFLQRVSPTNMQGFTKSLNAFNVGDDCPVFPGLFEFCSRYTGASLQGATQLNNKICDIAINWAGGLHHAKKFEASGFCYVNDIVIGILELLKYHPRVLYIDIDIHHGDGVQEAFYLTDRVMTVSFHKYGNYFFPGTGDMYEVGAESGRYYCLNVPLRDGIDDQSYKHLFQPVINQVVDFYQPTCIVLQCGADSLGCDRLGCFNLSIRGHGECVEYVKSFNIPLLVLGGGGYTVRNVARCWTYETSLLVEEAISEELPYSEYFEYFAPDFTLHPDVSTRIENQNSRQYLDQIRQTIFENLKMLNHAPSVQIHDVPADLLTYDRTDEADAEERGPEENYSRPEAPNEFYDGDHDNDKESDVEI
Sequence of Histone deacetylase 3/Nuclear receptor corepressor 2 (HDAC3/NCoR2) (Q9Y618 whole entry, further chain, the tested form may be a part): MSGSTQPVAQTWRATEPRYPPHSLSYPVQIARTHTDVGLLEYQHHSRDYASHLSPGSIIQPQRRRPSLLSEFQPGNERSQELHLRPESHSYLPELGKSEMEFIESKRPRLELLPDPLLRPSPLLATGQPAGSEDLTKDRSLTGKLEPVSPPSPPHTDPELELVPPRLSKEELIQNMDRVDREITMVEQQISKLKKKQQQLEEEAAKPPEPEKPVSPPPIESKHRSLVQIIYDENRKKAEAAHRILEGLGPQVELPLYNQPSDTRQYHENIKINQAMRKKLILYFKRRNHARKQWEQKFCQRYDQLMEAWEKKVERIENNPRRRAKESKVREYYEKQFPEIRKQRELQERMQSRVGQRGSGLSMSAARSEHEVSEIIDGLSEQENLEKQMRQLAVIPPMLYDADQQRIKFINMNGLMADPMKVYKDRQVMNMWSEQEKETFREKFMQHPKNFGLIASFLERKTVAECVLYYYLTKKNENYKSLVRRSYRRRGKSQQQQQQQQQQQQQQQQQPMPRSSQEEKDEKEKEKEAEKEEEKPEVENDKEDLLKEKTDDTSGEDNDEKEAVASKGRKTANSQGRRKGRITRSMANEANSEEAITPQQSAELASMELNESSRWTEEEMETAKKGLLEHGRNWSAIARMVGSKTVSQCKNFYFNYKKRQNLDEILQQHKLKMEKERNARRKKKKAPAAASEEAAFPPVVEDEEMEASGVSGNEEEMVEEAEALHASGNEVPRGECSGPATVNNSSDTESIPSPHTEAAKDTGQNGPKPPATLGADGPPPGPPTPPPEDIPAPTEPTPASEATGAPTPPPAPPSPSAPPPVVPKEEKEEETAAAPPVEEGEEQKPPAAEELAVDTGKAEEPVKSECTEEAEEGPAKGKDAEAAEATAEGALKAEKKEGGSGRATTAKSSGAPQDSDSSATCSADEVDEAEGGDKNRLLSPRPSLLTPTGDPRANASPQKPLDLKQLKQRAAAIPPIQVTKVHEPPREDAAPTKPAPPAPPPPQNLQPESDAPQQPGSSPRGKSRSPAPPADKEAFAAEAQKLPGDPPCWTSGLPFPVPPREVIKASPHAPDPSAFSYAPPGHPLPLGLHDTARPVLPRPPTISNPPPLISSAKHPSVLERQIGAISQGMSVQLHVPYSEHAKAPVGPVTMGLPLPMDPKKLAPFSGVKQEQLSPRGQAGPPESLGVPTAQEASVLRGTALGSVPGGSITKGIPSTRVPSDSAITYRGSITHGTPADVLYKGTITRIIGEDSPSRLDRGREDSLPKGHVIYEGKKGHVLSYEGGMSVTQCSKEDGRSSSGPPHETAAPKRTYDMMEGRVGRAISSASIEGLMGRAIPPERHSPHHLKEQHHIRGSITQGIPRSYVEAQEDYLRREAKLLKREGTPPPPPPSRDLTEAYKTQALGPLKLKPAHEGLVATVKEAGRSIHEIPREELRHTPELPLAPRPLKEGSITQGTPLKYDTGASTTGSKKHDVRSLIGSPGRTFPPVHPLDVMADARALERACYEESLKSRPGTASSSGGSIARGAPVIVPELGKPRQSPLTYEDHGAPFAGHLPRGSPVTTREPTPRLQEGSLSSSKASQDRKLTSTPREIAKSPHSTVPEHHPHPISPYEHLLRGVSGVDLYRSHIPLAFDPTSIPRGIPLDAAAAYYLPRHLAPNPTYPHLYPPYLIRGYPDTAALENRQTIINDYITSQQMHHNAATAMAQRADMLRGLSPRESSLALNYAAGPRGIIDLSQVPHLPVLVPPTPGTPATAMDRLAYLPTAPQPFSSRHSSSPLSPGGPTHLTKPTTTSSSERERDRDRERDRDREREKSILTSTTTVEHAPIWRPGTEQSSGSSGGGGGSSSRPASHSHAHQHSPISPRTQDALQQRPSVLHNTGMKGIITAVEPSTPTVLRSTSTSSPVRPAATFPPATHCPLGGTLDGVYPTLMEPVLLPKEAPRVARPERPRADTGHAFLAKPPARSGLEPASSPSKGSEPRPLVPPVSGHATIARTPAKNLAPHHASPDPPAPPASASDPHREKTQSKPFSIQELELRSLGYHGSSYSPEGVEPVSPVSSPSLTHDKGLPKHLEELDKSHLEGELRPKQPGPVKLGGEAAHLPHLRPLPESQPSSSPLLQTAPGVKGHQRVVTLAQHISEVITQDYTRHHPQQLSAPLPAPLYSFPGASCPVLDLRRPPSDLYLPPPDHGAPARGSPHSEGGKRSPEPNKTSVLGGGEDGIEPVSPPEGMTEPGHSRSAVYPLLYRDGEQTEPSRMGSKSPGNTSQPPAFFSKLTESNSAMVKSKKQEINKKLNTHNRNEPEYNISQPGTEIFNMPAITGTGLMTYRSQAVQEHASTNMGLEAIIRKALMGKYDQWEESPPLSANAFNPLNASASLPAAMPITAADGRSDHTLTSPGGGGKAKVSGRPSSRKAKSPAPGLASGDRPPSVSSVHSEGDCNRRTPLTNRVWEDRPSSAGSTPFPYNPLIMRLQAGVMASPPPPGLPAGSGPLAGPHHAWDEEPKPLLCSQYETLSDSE

HL-60 [12] = assay: Induction of apoptosis in human HL-60 cells assessed as necrotic cells at 0.5 uM measured after 24 hrs by Annexin-V/FITC and propidium iodide staining based flow cytometry (reference value: 1.01 %); format: functional
HL-60 [13] = assay: Induction of apoptosis in human HL-60 cells assessed as live cells at 0.5 uM measured after 24 hrs by Annexin-V/FITC and propidium iodide staining based flow cytometry (reference value: 89.29 %); format: functional
HL-60 [14] = assay: Induction of apoptosis in human HL-60 cells assessed as necrotic cells at 2 uM measured after 24 hrs by Annexin-V/FITC and propidium iodide staining based flow cytometry (reference value: 1.01 %); format: functional
HL-60 [15] = assay: Induction of apoptosis in human HL-60 cells assessed as increase in accumulation at sub-G1 phase at 2 uM after 24 hrs by propidium iodide staining based flow cytometry (reference value: 2.72 %); format: functional
[16] = AUC (0 to infinity) in Sprague-Dawley rat at 5 mg/kg, iv measured up to 24 hrs by LC-MS/MS analysis; format: ADME, organism-based; set-up: route intravenous, dose 5 mg/kg, time <=24; conditions: in vivo
Histone deacetylase 2 = Histone deacetylase 2 (Homo sapiens, UniProt Q92769); assay: Inhibition of recombinant human HDAC2 expressed in baculovirus infected Sf9 cells using Boc-Lys(Ac)-AMC as substrate preincubated for 15 mins followed by substrate addition and measured after 60 mins by fluorescence based assay; format: cell-based
Sequence of Histone deacetylase 2 (Q92769 whole entry): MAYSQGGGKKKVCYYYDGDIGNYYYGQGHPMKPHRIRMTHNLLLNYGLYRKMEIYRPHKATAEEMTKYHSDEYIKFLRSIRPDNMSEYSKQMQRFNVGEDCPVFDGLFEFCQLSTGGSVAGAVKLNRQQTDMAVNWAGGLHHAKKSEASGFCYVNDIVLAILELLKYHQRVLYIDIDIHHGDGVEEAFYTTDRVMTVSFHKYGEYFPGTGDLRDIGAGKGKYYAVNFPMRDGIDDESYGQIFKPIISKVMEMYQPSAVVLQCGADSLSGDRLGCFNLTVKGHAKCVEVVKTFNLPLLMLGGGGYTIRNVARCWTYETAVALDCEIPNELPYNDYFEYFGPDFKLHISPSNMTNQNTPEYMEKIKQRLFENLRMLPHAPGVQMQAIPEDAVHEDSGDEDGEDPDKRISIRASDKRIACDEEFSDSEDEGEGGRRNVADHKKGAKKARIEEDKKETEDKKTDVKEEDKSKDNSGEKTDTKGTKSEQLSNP

HL-60 [17] = assay: Induction of apoptosis in human HL-60 cells assessed as live cells at 2 uM measured after 24 hrs by Annexin-V/FITC and propidium iodide staining based flow cytometry (reference value: 89.29 %); format: functional
[18] = Cmax in Sprague-Dawley rat at 5 mg/kg, iv measured up to 24 hrs by LC-MS/MS analysis; format: ADME, organism-based; set-up: route intravenous, dose 5 mg/kg, time <=24; conditions: in vivo
HL-60 [19] = assay: Induction of apoptosis in human HL-60 cells assessed as early apoptotic cells at 2 uM measured after 24 hrs by Annexin-V/FITC and propidium iodide staining based flow cytometry (reference value: 2.46 %); format: functional
Histone deacetylase 1 = Histone deacetylase 1 (Homo sapiens, UniProt Q13547); assay: Inhibition of recombinant human C-terminal FLAG/His-tagged HDAC1 (1 to 482 residues) expressed in Sf9 insect cells using Boc-Lys (Ac)-AMC as substrate preincubated for 15 mins followed by substrate addition and measured after 60 mins by fluorescence based assay
Sequence of Histone deacetylase 1 (Q13547 whole entry, the tested form may be a part): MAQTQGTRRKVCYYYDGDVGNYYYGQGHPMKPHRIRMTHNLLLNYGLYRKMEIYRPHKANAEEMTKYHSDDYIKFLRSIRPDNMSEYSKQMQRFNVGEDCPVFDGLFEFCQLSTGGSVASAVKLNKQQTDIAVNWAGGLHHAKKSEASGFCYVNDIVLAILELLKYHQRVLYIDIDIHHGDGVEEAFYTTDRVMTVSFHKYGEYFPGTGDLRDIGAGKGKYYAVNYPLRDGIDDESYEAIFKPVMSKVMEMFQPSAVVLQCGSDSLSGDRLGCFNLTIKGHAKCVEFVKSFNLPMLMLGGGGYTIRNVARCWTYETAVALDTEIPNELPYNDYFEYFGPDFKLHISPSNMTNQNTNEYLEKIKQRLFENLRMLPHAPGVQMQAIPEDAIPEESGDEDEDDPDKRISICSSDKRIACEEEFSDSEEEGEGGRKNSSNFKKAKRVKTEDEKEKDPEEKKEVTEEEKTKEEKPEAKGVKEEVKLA

HL-60 [20] = assay: Induction of apoptosis in human HL-60 cells assessed as increase in accumulation at sub-G1 phase at 0.5 uM after 24 hrs by propidium iodide staining based flow cytometry (reference value: 2.72 %); format: functional
HL-60 [21] = assay: Induction of apoptosis in human HL-60 cells assessed as increase in accumulation at sub-G1 phase at 1 uM after 24 hrs by propidium iodide staining based flow cytometry (reference value: 2.72 %); format: functional
[22] = biological target: T1, Protein deacetylase HDAC6 (Homo sapiens, UniProt Q9UBN7); assay: Inhibition of recombinant C-terminal FLAG-tagged full length human HDAC6 expressed in baculovirus infected Sf9 cells using Boc-Lys(Ac)-AMC as substrate preincubated for 15 mins followed by substrate addition and measured after 60 mins by fluorescence based assay
T1 sequence (Q9UBN7 whole entry): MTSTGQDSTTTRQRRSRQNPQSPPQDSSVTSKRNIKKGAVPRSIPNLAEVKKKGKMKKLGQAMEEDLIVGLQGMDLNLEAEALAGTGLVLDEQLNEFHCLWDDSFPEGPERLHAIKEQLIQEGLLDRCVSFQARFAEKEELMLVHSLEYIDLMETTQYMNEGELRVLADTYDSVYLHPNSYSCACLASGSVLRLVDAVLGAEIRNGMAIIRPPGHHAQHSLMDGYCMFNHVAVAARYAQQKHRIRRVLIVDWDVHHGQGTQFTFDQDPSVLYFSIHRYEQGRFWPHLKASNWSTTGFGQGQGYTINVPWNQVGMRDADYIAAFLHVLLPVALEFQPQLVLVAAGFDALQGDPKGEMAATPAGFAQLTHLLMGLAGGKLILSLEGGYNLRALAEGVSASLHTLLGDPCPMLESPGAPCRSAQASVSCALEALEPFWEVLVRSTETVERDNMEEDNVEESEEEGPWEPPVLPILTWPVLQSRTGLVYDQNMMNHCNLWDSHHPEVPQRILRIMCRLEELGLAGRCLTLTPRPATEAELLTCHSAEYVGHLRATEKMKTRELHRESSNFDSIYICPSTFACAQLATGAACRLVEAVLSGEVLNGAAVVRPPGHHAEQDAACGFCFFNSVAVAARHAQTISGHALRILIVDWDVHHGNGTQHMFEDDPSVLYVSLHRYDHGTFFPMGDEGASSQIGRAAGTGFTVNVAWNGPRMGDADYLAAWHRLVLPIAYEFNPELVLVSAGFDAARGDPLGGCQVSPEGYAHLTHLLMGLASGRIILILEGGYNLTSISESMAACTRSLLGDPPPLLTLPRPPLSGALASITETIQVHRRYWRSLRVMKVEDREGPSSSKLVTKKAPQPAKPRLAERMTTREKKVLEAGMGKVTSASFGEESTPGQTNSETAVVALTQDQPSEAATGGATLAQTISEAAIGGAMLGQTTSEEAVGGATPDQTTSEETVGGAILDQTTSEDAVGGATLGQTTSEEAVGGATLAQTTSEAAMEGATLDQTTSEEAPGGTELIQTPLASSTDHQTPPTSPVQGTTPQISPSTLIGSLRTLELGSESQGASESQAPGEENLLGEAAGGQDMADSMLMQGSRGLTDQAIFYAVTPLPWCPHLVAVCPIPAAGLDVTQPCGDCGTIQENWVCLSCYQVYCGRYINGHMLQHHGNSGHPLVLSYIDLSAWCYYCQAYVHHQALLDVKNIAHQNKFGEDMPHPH

HL-60 [23] = assay: Induction of apoptosis in human HL-60 cells assessed as late apoptotic cells at 2 uM measured after 24 hrs by Annexin-V/FITC and propidium iodide staining based flow cytometry (reference value: 7.24 %); format: functional
HL-60 [24] = assay: Induction of apoptosis in human HL-60 cells assessed as late apoptotic cells at 0.5 uM measured after 24 hrs by Annexin-V/FITC and propidium iodide staining based flow cytometry (reference value: 7.24 %); format: functional

CC1(C)C(=O)C(C#N)=C[C@]2(C)[C@H]3C(=O)C=C4[C@@H]5C[C@@](C)(C(=O)N6CCN(c7ccc(NC(=O)CCCCCCC(=O)NO)cc7)CC6)CC[C@]5(C)CC[C@@]4(C)[C@]3(C)CC[C@@H]12
Activity (HL-60 [1]): 37.66% | pIC50 (PC-3): 6.33 | Activity (HL-60 [2]): 20.73% | half-life [3]: 16.8 h | Activity (HL-60 [4]): 1.17% | Activity (HL-60 [5]): Active | Activity (HL-60 [6]): 2.92% | Activity (HL-60 [7]): 40.45% | Activity (HL-60 [8]): Active | pIC50 (HL-60 [9]): 6.43 | Activity (HL-60 [10]): Active | pIC50 [11]: 6.20 | Activity (HL-60 [12]): 3.91% | Activity (HL-60 [13]): 68.63% | Activity (HL-60 [14]): 8.05% | Activity (HL-60 [15]): 76.29% | AUC(0-inf) [16]: 3780 ng·h/mL | pIC50 (Histone deacetylase 2): 5.32 | Activity (HL-60 [17]): 23.9% | Cmax [18]: 10800 ng/mL | Activity (HL-60 [19]): 2.51% | pIC50 (Histone deacetylase 1): 5.60 | Activity (HL-60 [20]): 27.28% | Activity (HL-60 [21]): 58.14% | pIC50 [22]: 6.43 | Activity (HL-60 [23]): 65.55% | Activity (HL-60 [24]): 24.55%
